Among the data in BindingDB's records for doi:10.1111/cbdd.12489 (Zhejiang University, 2015) are IC50 values, retold here.

pIC50: −log10 of the molar value.

The target in this test is RAC-alpha serine/threonine-protein kinase (Homo sapiens, UniProt P31749). The test is described as follows: Akt1 Inhibitory Activity Assay. Particulars: pH 7.5; 25 °C. Here is the method: In vitro kinase assays were carried out using HTScan PKB/Akt1 Kinase Assay kit (Cell Signaling Technology). […] Then, PKB/Akt1 kinase activity was analyzed according to the manufacturer's instructions.
Chain of RAC-alpha serine/threonine-protein kinase (P31749 whole entry): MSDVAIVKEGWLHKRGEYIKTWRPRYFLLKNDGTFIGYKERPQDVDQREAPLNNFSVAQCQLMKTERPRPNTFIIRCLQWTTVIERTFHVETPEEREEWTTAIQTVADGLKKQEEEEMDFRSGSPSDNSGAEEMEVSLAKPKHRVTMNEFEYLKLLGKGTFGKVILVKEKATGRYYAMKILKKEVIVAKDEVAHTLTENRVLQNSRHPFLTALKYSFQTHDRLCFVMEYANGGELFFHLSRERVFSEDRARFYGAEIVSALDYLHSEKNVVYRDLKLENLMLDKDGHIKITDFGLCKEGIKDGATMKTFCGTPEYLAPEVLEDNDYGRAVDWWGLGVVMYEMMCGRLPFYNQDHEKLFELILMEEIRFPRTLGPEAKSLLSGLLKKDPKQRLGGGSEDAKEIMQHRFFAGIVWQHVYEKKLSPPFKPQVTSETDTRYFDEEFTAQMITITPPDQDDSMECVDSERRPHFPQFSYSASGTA

Take `O=c1c(O)c(-c2ccc(O)c(O)c2)oc2cc(O)c(CN3CCOCC3)c(O)c12` [2-(3,4-Dihydroxyphenyl)-3,5,7-trihydroxy-6-(morpholinomethyl)-4H-chromen-4-one (3a)]: the pIC50 – broadly, the IC50 on a negative log10 scale, so that one unit is a factor of ten – was 5.21.
Consider `CN(Cc1ccccc1)Cc1c(O)cc2oc(-c3ccc(O)c(O)c3)c(O)c(=O)c2c1O` [6-((Benzyl(methyl)amino)methyl)-2-(3,4-dihydroxyphenyl)-3,5,7-trihydroxy-4H-chromen-4-one (3c)], for which the pIC50 was 5.26.
